Experimental data: the NIST ThermoML archive (doi:10.1021/je4009987)

Assay: mn = molality of the nth substance listed, in mol/kg
Settings: 101 kPa, Liquid; for speed of sound: Sing-around technique in a fixed-path interferometer; for mass density: Vibrating tube method

COC(=O)CC(C)=O [methyl 3-oxobutanoate] + O
Settings	mass density, 288.15 K [kg/m3]	mass density, 293.15 K [kg/m3]	mass density, 298.15 K [kg/m3]	mass density, 303.15 K [kg/m3]	mass density, 308.15 K [kg/m3]	speed of sound, 288.15 K [m/s]	speed of sound, 293.15 K [m/s]	speed of sound, 298.15 K [m/s]	speed of sound, 303.15 K [m/s]	speed of sound, 308.15 K [m/s]
m1 = 0.0809	1000.36	999.43	998.205	996.78	995.12	1472.5	1487.7	1501.3	1513.1	1523.2
m1 = 0.1654	1001.65	1000.66	999.37	997.9	996.2	1477.3	1491.9	1504.8	1516.1	1525.7
m1 = 0.285	1003.44	1002.36	1001	999.454	997.68	1484.7	1498.3	1510.5	1521	1529.9
m1 = 0.386	1004.9	1003.75	1002.33	1000.73	998.91	1490.1	1503.1	1514.6	1524.4	1532.7
m1 = 0.4607	1005.98	1004.75	1003.3	1001.65	999.79	1494.2	1506.6	1517.6	1527	1534.9
m1 = 0.5604	1007.37	1006.06	1004.56	1002.85	1000.94	1499.6	1511.4	1521.7	1530.5	1537.9
m1 = 0.6367	1008.4	1007.01	1005.53	1003.74	1001.79	1503	1514.2	1524.1	1532.5	1539.5
m1 = 0.7871	1010.4	1008.9	1007.35	1005.47	1003.45	1509.8	1520.2	1529.1	1536.7	1542.9
m1 = 0.8429	1011.13	1009.58	1008	1006.11	1004.04	1512.2	1522.2	1530.9	1538.1	1544
